Active and inactive are the calls of the source. No cut-off for these calls is given here.
Key:
[1] = target: T1, Ubiquitin carboxyl-terminal hydrolase 8 (Homo sapiens, UniProt P40818); assay: Inhibition of N-terminal His6-tagged USP8 (unknown origin) catalytic domain (734 to 1110 residues) expressed in Escherichia coli BL21 (DE3) cells assessed as deubiquitinating activity using ubiquitin-rhodamine -110 as substrate incubated for 30 mins followed by substrate addition measured after 30 mins by ubiquitin-rhodamine-110 based fluorometric assay
T1 sequence (P40818 whole entry): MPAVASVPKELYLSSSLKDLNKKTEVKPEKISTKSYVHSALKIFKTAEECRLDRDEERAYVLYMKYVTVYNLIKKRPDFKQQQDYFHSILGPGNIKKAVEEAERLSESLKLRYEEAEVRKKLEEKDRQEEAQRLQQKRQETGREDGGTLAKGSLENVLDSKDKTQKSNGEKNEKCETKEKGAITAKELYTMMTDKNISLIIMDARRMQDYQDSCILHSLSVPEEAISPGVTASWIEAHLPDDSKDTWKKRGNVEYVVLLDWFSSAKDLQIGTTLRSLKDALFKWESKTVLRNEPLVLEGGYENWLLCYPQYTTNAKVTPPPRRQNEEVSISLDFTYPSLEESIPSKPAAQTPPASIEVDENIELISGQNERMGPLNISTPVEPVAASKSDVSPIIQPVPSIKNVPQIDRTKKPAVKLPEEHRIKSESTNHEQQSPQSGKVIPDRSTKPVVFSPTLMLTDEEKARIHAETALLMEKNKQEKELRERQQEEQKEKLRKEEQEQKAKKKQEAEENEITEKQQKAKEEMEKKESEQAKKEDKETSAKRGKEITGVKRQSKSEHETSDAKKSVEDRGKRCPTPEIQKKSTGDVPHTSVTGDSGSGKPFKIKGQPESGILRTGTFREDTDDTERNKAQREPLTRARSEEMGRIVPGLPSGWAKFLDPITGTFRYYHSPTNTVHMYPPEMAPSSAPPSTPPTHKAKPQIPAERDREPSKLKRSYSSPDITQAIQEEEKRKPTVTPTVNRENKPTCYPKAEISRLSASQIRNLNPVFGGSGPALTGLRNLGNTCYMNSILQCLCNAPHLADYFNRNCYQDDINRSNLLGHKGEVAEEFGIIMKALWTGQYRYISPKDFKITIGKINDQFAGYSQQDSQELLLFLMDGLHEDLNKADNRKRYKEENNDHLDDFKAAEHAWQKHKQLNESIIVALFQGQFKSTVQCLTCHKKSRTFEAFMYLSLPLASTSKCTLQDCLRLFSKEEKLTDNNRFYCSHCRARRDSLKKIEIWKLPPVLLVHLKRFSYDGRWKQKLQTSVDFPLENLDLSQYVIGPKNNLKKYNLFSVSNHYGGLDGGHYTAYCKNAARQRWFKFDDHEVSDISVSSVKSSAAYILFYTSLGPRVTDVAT

[2] = target: T1, Ubiquitin carboxyl-terminal hydrolase 8; assay: Binding affinity to N-terminal His6-tagged USP8 catalytic domain (734 to 1110 residues) (unknown origin) expressed in Escherichia coli BL21 (DE3) cells by surface plasmon resonance method
[3] = target: T2, Ubiquitin carboxyl-terminal hydrolase 8 (Homo sapiens) (UniProt P40818); assay: Binding affinity to N-terminal His6-tagged USP8 catalytic domain (734 to 1110 residues) (unknown origin) expressed in Escherichia coli BL21 (DE3) cells using K63-linked di-ubiquitin as substrate by di-ubiquitin cleavage assay
T2 sequence (whole entry): T1 sequence (P40818 whole entry)

[4] = target: T3, Ubiquitin carboxyl-terminal hydrolase 2 (Homo sapiens, UniProt O75604); assay: Inhibition of USP2 (267 to 599 residues) (unknown origin) catalytic domain expressed in Escherichia coli BL21 (DE3) cells using ubiquitin-rhodamine -110 as substrate incubated for 30 mins followed by substrate addition measured after 30 mins by ubiquitin-rhodamine-110 based fluorometric assay
T3 sequence (O75604 whole entry): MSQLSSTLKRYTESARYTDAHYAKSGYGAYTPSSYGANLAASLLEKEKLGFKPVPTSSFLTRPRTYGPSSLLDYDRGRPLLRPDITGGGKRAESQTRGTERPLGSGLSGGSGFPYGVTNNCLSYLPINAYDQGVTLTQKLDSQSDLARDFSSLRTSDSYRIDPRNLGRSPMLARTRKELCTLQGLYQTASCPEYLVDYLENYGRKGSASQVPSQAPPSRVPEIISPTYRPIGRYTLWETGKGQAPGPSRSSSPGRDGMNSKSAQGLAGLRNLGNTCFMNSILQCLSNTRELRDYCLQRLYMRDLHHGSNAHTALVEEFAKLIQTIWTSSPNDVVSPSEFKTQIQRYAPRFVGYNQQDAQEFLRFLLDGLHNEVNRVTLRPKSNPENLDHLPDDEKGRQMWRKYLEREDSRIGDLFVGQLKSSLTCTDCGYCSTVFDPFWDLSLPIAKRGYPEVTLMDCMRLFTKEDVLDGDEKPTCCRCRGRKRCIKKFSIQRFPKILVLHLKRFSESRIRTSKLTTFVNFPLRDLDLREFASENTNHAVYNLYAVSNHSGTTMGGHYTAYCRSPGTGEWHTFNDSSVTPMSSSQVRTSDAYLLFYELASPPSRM

[5] = test system: MCF7; assay: Induction of apoptosis in human MCF7 cells assessed as increase in apoptotic cells at 0.5 uM incubated for 12 hrs by AnnexinV-FITC/propidium iodide staining based flow cytometry relative to control (reference value: 2.00 %); format: functional
[6] = test system: MCF7; assay: Induction of apoptosis in human MCF7 cells assessed as increase in apoptotic cells at 2 uM incubated for 12 hrs by AnnexinV-FITC/propidium iodide staining based flow cytometry relative to control (reference value: 2.00 %); format: functional
[7] = test system: MCF7; assay: Downregulation of ERalpha mRNA level in human MCF7 cells up to 5 uM measured after 24 hrs by RT-qPCR analysis; format: functional, cell-based
[8] = test system: MCF7; assay: Downregulation of progesterone receptor mRNA level in human MCF7 cells up to 5 uM measured after 24 hrs by RT-qPCR analysis; format: functional, cell-based
[9] = test system: MCF7; assay: Antitumor activity against human MCF7 cells xenografted in BALB/c mouse assessed as inhibition of tumor growth at 20 mg/kg, ip administered via gavage every other day for 14 days; format: functional, organism-based; details: time 14.0 day
[10] = test system: MCF7; assay: Antitumor activity against human MCF7 cells xenografted in BALB/c mouse assessed as reduction of EGFR phosphorylation in tumor tissue at 5 to 20 mg/kg, ip administered via gavage every other day for 14 days by immunohistochemistry analysis; format: functional, organism-based; details: dose 5-20 mg/kg, time 14.0 day
[11] = test system: MCF7; assay: Antitumor activity against human MCF7 cells xenografted in BALB/c mouse assessed as reduction of ErbB2 phosphorylation in tumor tissue at 5 to 20 mg/kg, ip administered via gavage every other day for 14 days by immunohistochemistry analysis; format: functional, organism-based; details: dose 5-20 mg/kg, time 14.0 day
[12] = test system: MCF7; assay: Antitumor activity against human MCF7 cells xenografted in BALB/c mouse assessed as reduction of ErbB3 phosphorylation in tumor tissue at 5 to 20 mg/kg, ip administered via gavage every other day for 14 days by immunohistochemistry analysis; format: functional, organism-based; details: dose 5-20 mg/kg, time 14.0 day
[13] = Toxicity in BALB/c mouse xenografted with human MCF7 cells assessed as effect on kidney at 5 to 20 mg/kg, […] every other day measured after 14 days by hematoxylin and eosin staining based analysis; format: organism-based; details: in vivo, 336 h, dose 5-20 mg/kg, time 14 day
[14] = Toxicity in BALB/c mouse xenografted with human MCF7 cells assessed as effect on aspartate aminotransferase level at 5 to 20 mg/kg, […] every other day measured after 14 days; format: organism-based; details: in vivo, 336 h, dose 5-20 mg/kg, time 14 day

IC50 [1]: 1.2 µM
Kd [2]: 4.7 µM
Activity [3]: Active
IC50 [4]: 50 µM
Structure (SMILES): Cc1n[nH]c(C)c1Oc1c(O)cc(O)c2c(=O)cc(-c3ccc(N4CCN(c5ccccn5)CC4)cc3)oc12
Activity [5]: 2.5%
Activity [6]: 12.57%
Activity [7]: Active
Activity [8]: Active
Activity [9]: Active
Activity [10]: Active
Activity [11]: Active
Activity [12]: Active
Activity [13]: Non-Toxic
Activity [14]: Non-Toxic

From ChEMBL document CHEMBL5131570, “Discovery of Potent Small-Molecule USP8 Inhibitors for the Treatment of Breast Cancer through Regulating ERα Expression” (J Med Chem, 2022)
